Consider 1 compound from patent US11779575B2, “Use of Wnt inhibitor Wnt-C59 in preparation of drug for treating SCN5A mutation-induced dilated cardiomyopathy” (ZHONGSHAN HOSPITAL, FUDAN UNIVERSITY, priority 2020, dated 2023).

One test deals with 46 types of tumor cells. The following applies: cited from earlier work.
The test system of test [1] is SCN5A heterozygous mutant mice (KI) with galactose aging and adriamycin-induced DCM. In words: Heart size comparison after 2 weeks of drug intervention. The format is in vivo. Conditions: KI+Wnt-C59 group vs KI group; intragastric 1 mg/kg.d for 2 weeks. Here is the method: (§1) SPF-grade male C57BL/6 mice (purchased from Shanghai Jiesijie Experimental Animal Co., Ltd.) and SCN5A heterozygous mutant mice (aging 8 to 10 weeks and weighing 20 g to 25 g) were selected and intraperitoneally injected with d-galactose (500 mg/kg. d, sigma G5388) continuously for 8 weeks to construct aging models. Then the mice were intraperitoneally injected with adriamycin (4 intraperitoneal injections, total 10 mg/kg, Sangon A603456) to construct DCM models. After the models were constructed, cardiomyocytes were isolated from mice in each of the KI group and the WT group. The experimental scheme was approved by the Animal Management and Ethics Committee of Fudan University.
After the ultrasonic test, there were 3 groups for study: WT group, KI group, and KI+Wnt-C59 group. Adriamycin was used for molding, and at the same time, the KI+Wnt-C59 group was intragastrically administered with Wnt-C59 (1 mg/kg.d, MCE HY-15659) every day, and the WT and KI groups were intragastrically administered with an equal volume of sterile normal saline as a control. Mice in each group received normal diet and water, and the administration was conducted continuously for 2 weeks. The body weight was measured and recorded for mice in each group every day.
After 2 weeks of drug intervention, the mice were sacrificed and hearts thereof were collected for heart size comparison among the 3 groups.

The test system is the same in test [2]. The test is described as follows: Evaluation on mouse cardiac function by echocardiography in aging and adriamycin-induced DCM model. In kind it is in vivo. Conditions: KI+Wnt-C59 group vs KI group, intragastric 1 mg/kg.d for 2 weeks. As to the method: as §1
After the ultrasonic test, there were 3 groups for study: WT group, KI group, and KI+Wnt-C59 group. Adriamycin was used for molding, and at the same time, the KI+Wnt-C59 group was intragastrically administered with Wnt-C59 (1 mg/kg.d, MCE HY-15659) every day, and the WT and KI groups were intragastrically administered with an equal volume of sterile normal saline as a control. […] The body weight was measured and recorded for mice in each group every day.
The echocardiogram was measured 2 weeks after the administration, with a probe frequency of 30 MHz. Specifically, the mice were anesthetized with isoflurane, and an M-mode image was recorded when a heart rate of the mice was maintained at 450 to 500 beats/min. […]

Structures are written as SMILES.

In the case of `Cc1cc(-c2ccc(CC(=O)Nc3ccc(-c4cccnc4)cc3)cc2)ccn1` [Wnt-C59], the “proliferation of tumor cells” value in the test with 46 types of tumor cells is given as “significantly inhibit”. For the same compound, the heart size result in test [1] is “significantly smaller”. Also, in test [2], the “cardiac function (left ventricular ejection fraction, LVEF)” value was “significantly improved”.
